{"source": "paper PMC5917010", "about": "“Structural basis for GPR40 allosteric agonism and incretin stimulation” (Nature Communications, 2018)", "key": {"[1]": {"test_system": "C57Bl/6 mice", "test": "Incretin secretion assay in C57Bl/6 mice", "format": "in vivo, mouse", "conditions": "for plasma PYY level: Fig. 3e; for plasma total GLP-1: wild type C57BL/6 mice", "protocol": "Nine week old male C57Bl/6 mice (Envigo, Indianapolis) were used. The night before the incretin assay, mice were transferred to clean cages and fasted overnight. On the morning of the assay, the mice were weighed and randomized by block randomization into groups based on body weight (N = 6) so each group had similar mean and standard deviation of body weight. […] Animals were dosed with vehicle or the test article by oral gavage. Group allocations were not blinded from the experimenters who collected the data. The mice were sacrificed at 0.5, 1, 2, 4, or 8 h post the compound treatment. Blood was taken by cardiac puncture into EDTA tubes containing DPPIV inhibitor and aprotinin cocktail after CO2 euthanization. The final DPPIV inhibitor concentration was 50 µM and aprotinin was 250 K IU/mL. Blood samples were centrifuged at 3000×g for 5 min and plasma transferred into 96 well plates. Plasma total GLP-1 and active GIP levels were measured by ELISA assays that were developed in-house. Data were expressed as mean±s.e.m. […] Cook’s distance was also calculated from linear regression. All animals were included in the analysis with their individual Cook’s distance < 1. Significance is denoted at p < 0.05."}, "[2]": {"target": "T1, human PPARdelta (Homo sapiens, UniProt Q03181)", "T1 sequence (Q03181 1-441)": "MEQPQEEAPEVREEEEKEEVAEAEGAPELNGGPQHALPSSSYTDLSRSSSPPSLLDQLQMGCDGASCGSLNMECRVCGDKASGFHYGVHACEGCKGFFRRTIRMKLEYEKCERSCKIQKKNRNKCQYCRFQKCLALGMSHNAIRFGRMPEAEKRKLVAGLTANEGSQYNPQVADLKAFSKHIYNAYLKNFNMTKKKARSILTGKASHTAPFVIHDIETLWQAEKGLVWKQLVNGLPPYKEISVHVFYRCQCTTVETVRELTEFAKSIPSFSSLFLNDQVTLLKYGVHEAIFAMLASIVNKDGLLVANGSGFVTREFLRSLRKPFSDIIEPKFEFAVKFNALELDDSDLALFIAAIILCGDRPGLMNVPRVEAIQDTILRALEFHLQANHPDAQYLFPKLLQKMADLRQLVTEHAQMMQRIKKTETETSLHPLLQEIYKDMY", "test": "human PPARdelta binding", "conditions": "Supplementary Table 1"}, "[3]": {"target": "Mouse GPR40 (Mus musculus, UniProt Q76JU9)", "sequence (Q76JU9 whole entry)": "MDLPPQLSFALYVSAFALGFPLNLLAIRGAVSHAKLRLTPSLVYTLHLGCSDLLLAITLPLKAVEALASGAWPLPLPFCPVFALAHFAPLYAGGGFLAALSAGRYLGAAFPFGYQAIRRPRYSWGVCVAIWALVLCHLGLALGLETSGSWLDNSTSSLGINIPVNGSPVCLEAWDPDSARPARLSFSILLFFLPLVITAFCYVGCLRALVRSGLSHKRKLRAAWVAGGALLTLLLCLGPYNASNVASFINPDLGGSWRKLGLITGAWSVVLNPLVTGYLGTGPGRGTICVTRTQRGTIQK", "test": "Mouse GPR40 b-arrestin", "format": "cell-based"}, "[4]": {"target": "T2, human GPR40 (A2 site) (Homo sapiens, UniProt O14842)", "T2 construct": "full length recombinant human GPR40 (GPR40) cDNA; expressed in transfected cells; host or cells: HEK 293, stably transfected; crude cell surface membranes", "T2 sequence (O14842 whole entry)": "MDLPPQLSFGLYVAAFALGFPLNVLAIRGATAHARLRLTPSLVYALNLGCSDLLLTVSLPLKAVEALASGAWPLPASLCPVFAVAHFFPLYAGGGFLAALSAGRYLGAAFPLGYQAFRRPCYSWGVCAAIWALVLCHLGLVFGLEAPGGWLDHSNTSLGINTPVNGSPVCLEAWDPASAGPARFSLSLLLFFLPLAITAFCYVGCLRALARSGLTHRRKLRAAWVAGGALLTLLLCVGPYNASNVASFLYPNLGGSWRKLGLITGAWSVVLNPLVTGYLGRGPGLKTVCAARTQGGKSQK", "test": "A2 site radioligand binding with [3H]-AM-1638", "protocol": "Crude cell surface membranes were prepared from human embryonic kidney 293 (HEK 293) cells stably transfected (for the wild type) or transiently transfected (for the mutants and corresponding wild type) with full length recombinant human GPR40 (GPR40) cDNA, using differential centrifugation methods.\nA2 Site Binding. 10 µL of compound diluted in 100% DMSO and 90 µL of Assay Buffer (50 mM Tris-HCl, pH 7.5, 10 mM CaCl2, 10 mM MgCl2, 0.1% w/v Bacitracin, 2.5% w/v dextran charcoal-treated FBS) were added to a deep 96-well polypropylene assay plate (Beckman Coulter). Two hundred μl of [^3H]-AM-1638 (84 Ci/mmol, Quotient Bioresearch Radiochemicals, Ltd.; 0.5 nM final concentration) and 200 µL of GPR40 membranes (5 µg/well), both diluted in Assay Buffer, were added to the assay plate, followed by a 1 min shake and a 1 h incubation at room temperature (22 °C).\nAssays were terminated by filtration through GF/C glass fiber filtermats (Perkin Elmer) presoaked in 50 mM Tris–HCl, pH 7.5, using a Mach III cell harvester (TomTec). Filtermats were washed two times with 5 mL of ice-cold 50 mM Tris–HCl, pH 7.5 buffer, dried 1 h in a convection oven at 60 °C and embedded with Meltilex A solid scintillant (Perkin Elmer). Radioactivity was determined as counts per min (cpm) using a Trilux Microbeta plate scintillation counter (Perkin Elmer)."}, "[5]": {"target": "T3, human PPARalpha (Homo sapiens, UniProt Q07869)", "T3 sequence (Q07869 1-468)": "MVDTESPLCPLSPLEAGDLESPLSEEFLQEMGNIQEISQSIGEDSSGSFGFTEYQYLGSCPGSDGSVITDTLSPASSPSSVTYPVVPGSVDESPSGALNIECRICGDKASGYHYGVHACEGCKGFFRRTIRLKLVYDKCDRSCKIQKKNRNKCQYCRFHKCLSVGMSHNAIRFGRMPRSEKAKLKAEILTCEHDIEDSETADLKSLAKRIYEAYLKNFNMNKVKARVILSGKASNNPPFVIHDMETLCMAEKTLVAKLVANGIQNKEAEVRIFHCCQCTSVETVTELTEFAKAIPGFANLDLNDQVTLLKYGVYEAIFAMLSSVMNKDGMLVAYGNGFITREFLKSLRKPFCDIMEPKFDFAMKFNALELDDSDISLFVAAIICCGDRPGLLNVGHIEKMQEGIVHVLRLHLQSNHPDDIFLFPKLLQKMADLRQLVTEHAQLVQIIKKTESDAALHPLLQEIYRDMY", "test": "human PPARalpha binding", "conditions": "Supplementary Table 1"}, "[6]": {"target": "T4, human PPARgama (Homo sapiens, UniProt P37231)", "T4 sequence (P37231 1-505)": "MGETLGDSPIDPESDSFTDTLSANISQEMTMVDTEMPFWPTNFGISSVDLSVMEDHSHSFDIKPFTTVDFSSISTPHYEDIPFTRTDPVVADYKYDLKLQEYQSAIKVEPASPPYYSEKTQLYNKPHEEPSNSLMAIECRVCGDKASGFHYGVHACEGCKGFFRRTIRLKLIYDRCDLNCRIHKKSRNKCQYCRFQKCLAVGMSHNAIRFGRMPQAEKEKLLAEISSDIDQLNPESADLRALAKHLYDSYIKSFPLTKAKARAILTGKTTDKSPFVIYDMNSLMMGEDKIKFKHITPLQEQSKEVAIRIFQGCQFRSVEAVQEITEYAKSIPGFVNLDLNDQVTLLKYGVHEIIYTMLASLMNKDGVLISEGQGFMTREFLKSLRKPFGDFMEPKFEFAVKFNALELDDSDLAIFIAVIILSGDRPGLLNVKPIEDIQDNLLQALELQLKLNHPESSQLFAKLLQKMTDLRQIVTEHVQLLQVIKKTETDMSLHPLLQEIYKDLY", "test": "human PPARgamma binding", "conditions": "Supplementary Table 1"}}, "note": "Read-outs that look alike come from different tables or passages of the source.", "data": [{"molecule": "COc1ccc(C(=O)N(CC(C)(C)C)c2cccc(C)n2)c(N2CCC(c3cc4ccc([C@@H](CC(=O)O)C5CC5)cc4o3)CC2)c1", "note": "[compound 1]", "values": [{"measurement": "plasma PYY level", "setting": "[1]", "result": "no effect on plasma PYY level"}, {"measurement": "plasma active GIP concentrations", "setting": "[1]; oral gavage, up to 8 h", "result": "significantly increases plasma active GIP concentrations up to 8 h"}, {"measurement": "plasma total GLP-1 concentrations", "setting": "[1]; oral gavage, up to 8 h", "result": "significantly increases plasma total GLP-1 concentrations up to 8 h"}, {"measurement": "plasma total GLP-1", "setting": "[1]; oral treatment at 10 mg/kg, 4-hour window", "result": "sustains an elevated level of plasma total GLP-1"}, {"measurement": "IC50", "setting": "[2]", "result": "> 10000", "unit": "nM"}, {"measurement": "EC50", "setting": "[3]", "result": 1.6, "unit": "nM"}, {"measurement": "Emax", "setting": "[3]", "result": 146, "unit": "%"}, {"measurement": "Ki", "setting": "[4]; Supplementary Table 1, read-out: Human GPR40 Binding to A2 Ki", "result": 0.9, "unit": "nM"}, {"measurement": "Ki", "setting": "[4]; competitive radioligand binding, membranes from stably transfected cells, Fig. 1a, read-out: Ki in [3H]-AM-1638 binding", "result": 0.81, "unit": "nM"}, {"measurement": "Ki", "setting": "[5]", "result": "> 10000", "unit": "nM"}, {"measurement": "Ki", "setting": "[6]", "result": "> 10000", "unit": "nM"}]}, {"molecule": "Cc1cc(OCCCS(C)(=O)=O)cc(C)c1-c1cccc(COc2ccc3c(c2)OC[C@H]3CC(=O)O)c1", "note": "[TAK-875]", "values": [{"measurement": "plasma PYY level", "setting": "[1]", "result": "no effect on plasma PYY level"}, {"measurement": "plasma total GLP-1", "setting": "[1]; oral treatment at 30 mg/kg", "result": "no effect on plasma total GLP-1"}, {"measurement": "IC50", "setting": "[2]", "result": "> 10000", "unit": "nM"}, {"measurement": "EC50", "setting": "[3]", "result": 8.6, "unit": "nM"}, {"measurement": "effect on [3H]-AM-1638 binding", "setting": "[4]; addition of unlabeled compound, Supplementary Fig. 1a", "result": "enhanced"}, {"measurement": "Ki", "setting": "[5]", "result": "> 10000", "unit": "nM"}, {"measurement": "Ki", "setting": "[6]", "result": "> 10000", "unit": "nM"}]}]}
